Results taken from ChEMBL document CHEMBL4184224, “Degradation of huntingtin mediated by a hybrid molecule composed of IAP antagonist linked to phenyldiazenyl benzothiazole derivative” (Bioorg Med Chem Lett, 2018).
The source made the active and inactive calls. No cut-off for these calls is given here. Where a SMILES comes first, the peptide text is derived from it. [ ]: non-standard residue; d: D form. The star is where a group is joined. X1 = CN(C)c1ccc(/N=N/c2nc3ccc(OCCOCCOCCN*)cc3s2)cc1; Dip = N[C@H](C(=O)O)C(c1ccccc1)c1ccccc1; Chg = N[C@H](C(=O)O)C1CCCCC1; NMeA = CN[C@@H](C)C(=O)O

Tests used:
Format in all cases: protein assay
[1] = biological target: T1, Baculoviral IAP repeat-containing protein 3/Huntingtin (Homo sapiens) (UniProt Q13489+P42858); experiment: Induction of IAP-huntingtin interaction-mediated huntingtin protein degradation in fibroblasts derived from normal human subjects assessed as huntingtin protein level at 10 uM incubated for 72 hrs by Western blot method (reference value: 100%)
T1 sequence (P42858 whole entry, looked up): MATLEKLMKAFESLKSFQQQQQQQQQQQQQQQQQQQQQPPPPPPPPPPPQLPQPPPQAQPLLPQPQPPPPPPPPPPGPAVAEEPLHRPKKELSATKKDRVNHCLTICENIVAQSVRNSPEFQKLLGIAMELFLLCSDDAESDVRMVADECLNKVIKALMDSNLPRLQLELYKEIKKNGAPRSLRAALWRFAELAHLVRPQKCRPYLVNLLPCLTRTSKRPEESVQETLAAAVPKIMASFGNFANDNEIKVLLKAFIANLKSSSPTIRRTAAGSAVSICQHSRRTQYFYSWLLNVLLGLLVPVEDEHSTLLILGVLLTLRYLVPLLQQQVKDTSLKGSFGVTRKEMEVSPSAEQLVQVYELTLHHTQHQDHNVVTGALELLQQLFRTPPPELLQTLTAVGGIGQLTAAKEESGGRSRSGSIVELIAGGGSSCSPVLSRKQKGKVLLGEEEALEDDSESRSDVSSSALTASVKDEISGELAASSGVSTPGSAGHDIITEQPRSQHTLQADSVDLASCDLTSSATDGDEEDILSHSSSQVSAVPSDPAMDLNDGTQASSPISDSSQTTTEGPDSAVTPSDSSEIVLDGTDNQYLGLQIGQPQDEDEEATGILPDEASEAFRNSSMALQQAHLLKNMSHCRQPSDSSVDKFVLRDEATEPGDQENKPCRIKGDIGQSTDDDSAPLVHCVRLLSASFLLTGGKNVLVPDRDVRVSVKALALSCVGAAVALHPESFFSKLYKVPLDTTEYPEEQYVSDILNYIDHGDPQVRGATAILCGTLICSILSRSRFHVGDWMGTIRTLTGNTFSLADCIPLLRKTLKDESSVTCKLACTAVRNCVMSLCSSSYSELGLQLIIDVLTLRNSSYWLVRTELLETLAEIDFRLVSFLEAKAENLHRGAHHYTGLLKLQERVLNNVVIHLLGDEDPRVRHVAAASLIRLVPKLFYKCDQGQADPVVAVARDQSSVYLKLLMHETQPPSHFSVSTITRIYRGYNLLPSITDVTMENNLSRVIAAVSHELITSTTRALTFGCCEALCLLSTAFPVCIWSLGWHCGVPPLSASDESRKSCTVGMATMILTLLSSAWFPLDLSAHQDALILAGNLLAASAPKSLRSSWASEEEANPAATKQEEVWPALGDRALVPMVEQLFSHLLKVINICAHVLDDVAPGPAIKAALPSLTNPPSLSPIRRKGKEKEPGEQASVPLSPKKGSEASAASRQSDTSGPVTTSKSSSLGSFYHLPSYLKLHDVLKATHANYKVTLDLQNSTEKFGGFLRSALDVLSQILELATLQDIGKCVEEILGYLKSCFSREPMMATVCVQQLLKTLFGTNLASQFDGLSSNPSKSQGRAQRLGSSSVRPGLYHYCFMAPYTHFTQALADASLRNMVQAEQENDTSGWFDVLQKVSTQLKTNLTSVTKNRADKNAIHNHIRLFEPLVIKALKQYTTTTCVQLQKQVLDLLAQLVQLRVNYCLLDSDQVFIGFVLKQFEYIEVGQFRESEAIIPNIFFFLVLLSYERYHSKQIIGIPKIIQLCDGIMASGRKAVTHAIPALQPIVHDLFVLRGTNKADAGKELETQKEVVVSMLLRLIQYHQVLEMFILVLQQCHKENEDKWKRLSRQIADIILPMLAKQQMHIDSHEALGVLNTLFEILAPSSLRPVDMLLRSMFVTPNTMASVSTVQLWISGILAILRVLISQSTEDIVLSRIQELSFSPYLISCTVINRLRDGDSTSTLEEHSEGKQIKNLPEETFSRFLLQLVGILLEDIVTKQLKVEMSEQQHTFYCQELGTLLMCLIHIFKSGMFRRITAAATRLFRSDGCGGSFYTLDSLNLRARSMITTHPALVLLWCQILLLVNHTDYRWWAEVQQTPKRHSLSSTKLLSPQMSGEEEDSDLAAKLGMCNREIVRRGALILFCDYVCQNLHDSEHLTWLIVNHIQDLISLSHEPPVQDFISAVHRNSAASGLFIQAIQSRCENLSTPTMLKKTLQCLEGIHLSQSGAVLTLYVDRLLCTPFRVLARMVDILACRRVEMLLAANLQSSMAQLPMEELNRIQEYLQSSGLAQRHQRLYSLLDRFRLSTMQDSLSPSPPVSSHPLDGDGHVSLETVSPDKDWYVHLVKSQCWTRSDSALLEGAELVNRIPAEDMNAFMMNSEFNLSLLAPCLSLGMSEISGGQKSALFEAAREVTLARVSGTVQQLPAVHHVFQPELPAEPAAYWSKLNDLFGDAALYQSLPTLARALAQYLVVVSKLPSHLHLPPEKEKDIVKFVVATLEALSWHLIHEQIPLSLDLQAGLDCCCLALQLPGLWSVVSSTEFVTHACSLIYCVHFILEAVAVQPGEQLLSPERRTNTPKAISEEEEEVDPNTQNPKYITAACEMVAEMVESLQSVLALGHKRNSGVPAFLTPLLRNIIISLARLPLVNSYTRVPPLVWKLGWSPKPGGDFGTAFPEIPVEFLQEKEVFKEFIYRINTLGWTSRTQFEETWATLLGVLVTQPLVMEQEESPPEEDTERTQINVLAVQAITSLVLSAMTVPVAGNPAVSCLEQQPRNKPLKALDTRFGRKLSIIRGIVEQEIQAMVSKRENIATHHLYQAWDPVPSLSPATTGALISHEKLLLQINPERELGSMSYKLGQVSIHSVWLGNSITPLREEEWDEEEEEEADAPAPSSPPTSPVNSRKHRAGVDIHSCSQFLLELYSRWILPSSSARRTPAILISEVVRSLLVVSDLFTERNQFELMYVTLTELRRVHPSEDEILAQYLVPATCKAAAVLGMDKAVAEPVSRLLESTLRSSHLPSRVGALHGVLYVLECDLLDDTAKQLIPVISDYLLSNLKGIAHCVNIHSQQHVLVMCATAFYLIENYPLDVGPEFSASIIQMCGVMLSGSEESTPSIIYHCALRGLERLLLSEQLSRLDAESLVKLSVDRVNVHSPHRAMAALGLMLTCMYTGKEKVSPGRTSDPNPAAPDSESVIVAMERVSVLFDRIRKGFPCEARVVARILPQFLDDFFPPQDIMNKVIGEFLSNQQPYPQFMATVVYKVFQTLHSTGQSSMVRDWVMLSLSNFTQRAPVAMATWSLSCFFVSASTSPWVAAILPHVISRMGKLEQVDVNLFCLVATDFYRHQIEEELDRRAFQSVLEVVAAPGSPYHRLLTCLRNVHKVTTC
T1 sequence (Q13489 whole entry, looked up): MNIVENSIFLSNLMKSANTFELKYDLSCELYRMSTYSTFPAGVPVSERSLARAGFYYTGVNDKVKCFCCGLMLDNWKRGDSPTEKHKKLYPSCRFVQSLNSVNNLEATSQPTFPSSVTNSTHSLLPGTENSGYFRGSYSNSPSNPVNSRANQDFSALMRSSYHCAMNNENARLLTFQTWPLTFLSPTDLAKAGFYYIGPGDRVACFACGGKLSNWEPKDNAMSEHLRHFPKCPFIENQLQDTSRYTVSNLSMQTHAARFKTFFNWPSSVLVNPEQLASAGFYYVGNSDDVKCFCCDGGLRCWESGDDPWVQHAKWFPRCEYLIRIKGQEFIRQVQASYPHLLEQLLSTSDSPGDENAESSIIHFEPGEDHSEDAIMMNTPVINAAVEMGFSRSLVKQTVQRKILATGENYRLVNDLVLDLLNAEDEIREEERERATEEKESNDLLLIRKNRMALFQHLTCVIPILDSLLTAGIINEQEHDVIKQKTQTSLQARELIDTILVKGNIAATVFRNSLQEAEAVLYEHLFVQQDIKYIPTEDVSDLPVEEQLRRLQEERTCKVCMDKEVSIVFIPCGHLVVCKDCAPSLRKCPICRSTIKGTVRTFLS

[2] = biological target: T1, Baculoviral IAP repeat-containing protein 3/Huntingtin (Homo sapiens); experiment: Induction of IAP-huntingtin interaction-mediated huntingtin protein degradation in fibroblasts derived from Huntington's disease patient at 10 uM incubated for 24 to 72 hrs by Western blot method
[3] = biological target: T1, Baculoviral IAP repeat-containing protein 3/Huntingtin (Homo sapiens); experiment: Induction of IAP-huntingtin interaction-mediated huntingtin protein degradation in fibroblasts derived from normal human subjects at 10 uM incubated for 24 to 72 hrs by Western blot method
[4] = biological target: T1, Baculoviral IAP repeat-containing protein 3/Huntingtin (Homo sapiens); experiment: Induction of IAP-huntingtin interaction-mediated huntingtin protein degradation in fibroblasts derived from normal human subjects assessed as huntingtin protein level at 10 uM incubated for 96 hrs by Western blot method (reference value: 100%)
[5] = biological target: T1, Baculoviral IAP repeat-containing protein 3/Huntingtin (Homo sapiens); experiment: Induction of IAP-huntingtin interaction-mediated huntingtin protein degradation in fibroblasts derived from normal human subjects assessed as huntingtin protein level at 10 uM incubated for 48 hrs by Western blot method (reference value: 100%)
[6] = biological target: T1, Baculoviral IAP repeat-containing protein 3/Huntingtin (Homo sapiens); experiment: Induction of IAP-huntingtin interaction-mediated huntingtin protein degradation in fibroblasts derived from normal human subjects assessed as huntingtin protein level at 10 uM incubated for 24 hrs by Western blot method (reference value: 100%)
[7] = biological target: T1, Baculoviral IAP repeat-containing protein 3/Huntingtin (Homo sapiens); experiment: Induction of IAP-huntingtin interaction-mediated huntingtin protein degradation in fibroblasts derived from Huntington's disease patient incubated for 24 hrs by Western blot method
[8] = biological target: T1, Baculoviral IAP repeat-containing protein 3/Huntingtin (Homo sapiens); experiment: Induction of immobilized GST tagged BIR3 (unknown origin)/insoluble GST-tagged huntingtin 62Q mutant (unknown origin) interaction at 3 to 30 uM incubated for 1.5 hrs at 37 degC by ELISA
[9] = biological target: T1, Baculoviral IAP repeat-containing protein 3/Huntingtin (Homo sapiens); experiment: Induction of immobilized GST tagged BIR3 (unknown origin)/soluble GST-tagged huntingtin 62Q mutant (unknown origin) interaction at 3 to 30 uM incubated for 1.5 hrs at 37 degC by ELISA
[10] = biological target: T1, Baculoviral IAP repeat-containing protein 3/Huntingtin (Homo sapiens); experiment: Induction of immobilized GST tagged BIR3 (unknown origin)/soluble GST-tagged huntingtin 62Q mutant (unknown origin) interaction at 10 uM in presence of 10 and 100 uM thioflavin T incubated for 1.5 hrs at 37 degC by ELISA
[11] = biological target: T1, Baculoviral IAP repeat-containing protein 3/Huntingtin (Homo sapiens); experiment: Induction of IAP-huntingtin interaction-mediated huntingtin protein degradation in fibroblasts derived from Huntington's disease patient incubated for 48 to 72 hrs by Western blot method
[12] = biological target: T1, Baculoviral IAP repeat-containing protein 3/Huntingtin (Homo sapiens); experiment: Induction of immobilized GST tagged BIR3 (unknown origin)/soluble GST-tagged huntingtin 62Q mutant (unknown origin) interaction at 10 uM in presence of 3 and 10 uM MV1 incubated for 1.5 hrs at 37 degC by ELISA

Activity [1] | Activity [2] | Activity [3] | Activity [4] | Activity [5] | Activity [6] | Activity [7] | Activity [8] | Activity [9] | Activity [10] | Activity [11] | Activity [12] | SMILES
Active | Active | Active | Active | Active | Active | – | – | – | – | – | – | CC(C)C[C@H](NC(=O)[C@@H](O)[C@H](N)Cc1ccccc1)C(=O)NCCOCCOCCOc1ccc2nc(/N=N/c3ccc(N(C)C)cc3)sc2c1
76% | Active | – | 44% | 70% | 72% | Dose-dependent effect | Active | Active | inactive | Active | inactive | CN[C@@H](C)C(=O)N[C@H](C(=O)N1CCC[C@H]1C(=O)N[C@H](C(=O)NCCOCCOCCOc1ccc2nc(/N=N/c3ccc(N(C)C)cc3)sc2c1)C(c1ccccc1)c1ccccc1)C1CCCCC1 (H-[NMeA][Chg]P[Dip]-X1)
Active | Active | Active | Active | Active | Active | – | – | – | – | – | – | Cc1ccc2nc(-c3ccc(NCCOCCOCCNC(=O)[C@H](CC(C)C)NC(=O)[C@@H](O)[C@H](N)Cc4ccccc4)cc3)sc2c1
